Reference: patent publication US20050118572A1, “Single cell assessment of viral infection/replication” (The Board of Trustees of the Leland Stanford Junior …, priority 2002, published 2005)

Assays:
glutathione (GSH) = assay: Intracellular glutathione levels by monochlorobimane fluorescence (flow cytometry); format: cell-based, human
Protocol: PBMC were isolated and HIV-1 infected as described in materials and methods. Intracellular glutathione levels were assessed using monochlorobimane fluorescence and samples were analyzed by flow cytometry.

[1] = test system: uninfected CD4 T cells and CD8 T cells; format: cell-based, human
Protocol: (§1) PBMC were infected with a high HIV-1 dose, incubated for three days with indicated concentrations of Gd-Tex, and assessed for annexin-V by flow cytometry. Live CD3 cells were gated and apoptotic percentages quantified for CD4 and CD8 cells.
At Gd-Tex doses below 250 µM, GSH depletion and Gd-Tex toxicity in CD8 T cells and uninfected CD4 T cells was minimal. […] These findings are shown in FIG. 4-5, in which data are shown for subset-defining cell surface marker expression, HIV infection, intracellular GSH and Gd-Tex toxicity (induction of apoptosis and the breaking of the cell permeability barrier), all measured simultaneously for individual cells by 11-color, 13-parameter Hi-D FACS.

HIV-1 = HIV-1 infected PBMC, TCID50=300/1×10^6 cells, FIG. 5
[2] = test system: HIV-1 infected CD4 T cells; assay: Killing / apoptosis (annexin-V, intracellular p24, EMA) of HIV-1 infected CD4 T cells by FACS; format: cell-based, human
Protocol: as §1
PBMC were infected with high and low HIV-1 doses and treated for six days with the indicated concentrations and processed as indicated above.
Live CD4 T cells were gated and analyzed for annexin-V and p24 stain.
IL-2 activated, HIV-infected cultures were treated with Gd-Tex at the indicated concentrations for 6 days and processed for flow cytometry. […] Histograms are representative of 4 independent experiments.

Q: For CC(=O)[O-].CC(=O)[O-].CCc1c(CC)c2cc3nc(cnc4cc(OCCOCCOCCOC)c(OCCOCCOCCOC)cc4ncc4nc(cc1[n-]2)C(CCCO)=C4C)C(C)=C3CCCO.O.[Gd+3] [Gd-Tex, motexafin gadolinium], which “GSH depletion in CD8 T cells and uninfected CD4 T cells” value (glutathione (GSH); Gd-Tex doses below 250 µM) is on record?
A: minimal

Q: What about the “GSH depletion in T cells in PBMC” value (glutathione (GSH); high doses of Gd-Tex) of the same molecule?
A: depleted GSH

Q: And the “Gd-Tex toxicity in CD8 T cells and uninfected CD4 T cells” value [1]?
A: minimal

Q: And the “Killing of uninfected CD4 T cells and CD8 T cells” value [1]?
A: did not kill

Q: What about the “HIV-1 production (RT activity, p24 levels)” value (HIV-1) of the same molecule?
A: inhibition of HIV-1 production

Q: What about the “Killing of HIV-infected (p24+) CD4 T cells” value ([2]; 3 uM Gd-Tex) of the same molecule?
A: selectively killed

Q: What about the “p24 cells among live CD4 T cells infected with HIV-1” value ([2]; 50 μM Gd-Tex, 6 days) of the same molecule?
A: decrease of p24 cells

Q: What about the “Apoptosis induction in HIV-1 infected CD4 T cells” value ([2]; Gd-Tex concentrations not cytotoxic to uninfected cells) of the same molecule?
A: selectively induced apoptosis
